These compounds were tested against Plasminogen activator inhibitor 1 (Homo sapiens, UniProt P05121) (assay: ChEBML_222791).
Description: Inhibitory activity against human plasminogen activator inhibitor-1 (PAI-1) evaluated by chromogenic assay.

Chain of Plasminogen activator inhibitor 1 (P05121 whole entry): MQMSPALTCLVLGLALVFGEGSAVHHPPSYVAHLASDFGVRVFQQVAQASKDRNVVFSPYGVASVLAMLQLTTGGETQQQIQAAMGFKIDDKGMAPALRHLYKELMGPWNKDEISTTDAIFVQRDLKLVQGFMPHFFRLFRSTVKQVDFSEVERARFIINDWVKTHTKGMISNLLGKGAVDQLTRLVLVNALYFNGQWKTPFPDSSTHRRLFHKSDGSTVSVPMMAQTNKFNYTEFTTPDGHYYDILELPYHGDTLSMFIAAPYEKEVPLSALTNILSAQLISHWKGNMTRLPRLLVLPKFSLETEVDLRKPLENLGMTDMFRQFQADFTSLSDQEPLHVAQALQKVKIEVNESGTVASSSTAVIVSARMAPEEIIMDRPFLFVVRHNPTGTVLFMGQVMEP

Row | Structure (SMILES) | IC50 [µM]
1 | O=C(O)CCCCCCCOc1ccc(NC(=O)C2C(=O)CN(c3ccccc3Cl)C2=O)cc1 (centres undefined) [8-(4-{[1-(2-Chloro-phenyl)-4-hydroxy-2-oxo-2,5-dihydro-1H-pyrrole-3-carbonyl]-amino}-phenoxy)-octanoic acid] | > 50
2 | CC(=O)Nc1ccc(N2CC(=O)C(C(=O)Nc3ccc(OCCCCCCCC(=O)O)cc3)C2=O)cc1 (centres undefined) [8-(4-{[1-(4-Acetylamino-phenyl)-4-hydroxy-2-oxo-2,5-dihydro-1H-pyrrole-3-carbonyl]-amino}-phenoxy)-octanoic acid] | > 50
3 | COC(=O)CCCCCCCOc1ccc(NC(=O)C2C(=O)CN(c3ccc(Cl)cc3)C2=O)cc1 (centres undefined) [8-(4-{[1-(4-Chloro-phenyl)-4-hydroxy-2-oxo-2,5-dihydro-1H-pyrrole-3-carbonyl]-amino}-phenoxy)-octanoic acid methyl ester] | > 50
4 | COc1ccccc1N1CC(=O)C(C(=O)Nc2ccc(OCCCCCCCC(=O)O)cc2)C1=O (centres undefined) [8-(4-{[4-Hydroxy-1-(2-methoxy-phenyl)-2-oxo-2,5-dihydro-1H-pyrrole-3-carbonyl]-amino}-phenoxy)-octanoic acid] | > 50
5 | O=C(O)CCCCCCCOc1ccc(NC(=O)C2C(=O)CN(c3ccc(N4CCOCC4)cc3)C2=O)cc1 (centres undefined) [8-(4-{[4-Hydroxy-1-(4-morpholin-4-yl-phenyl)-2-oxo-2,5-dihydro-1H-pyrrole-3-carbonyl]-amino}-phenoxy)-octanoic acid] | > 50
6 | O=C(O)CCCCCCCOc1ccc(NC(=O)C2C(=O)NC(Cc3ccc(O)cc3)C2=O)cc1 (centres undefined) [8-(4-{[4-Hydroxy-5-(4-hydroxy-benzyl)-2-oxo-2,5-dihydro-1H-pyrrole-3-carbonyl]-amino}-phenoxy)-octanoic acid] | > 50
7 | O=C(O)CCCCCCCOc1ccc(NC(=O)C2C(=O)CN(Cc3ccccc3)C2=O)cc1 (centres undefined) [8-{4-[(1-Benzyl-4-hydroxy-2-oxo-2,5-dihydro-1H-pyrrole-3-carbonyl)-amino]-phenoxy}-octanoic acid] | > 50
8 | O=C(O)CCCCCCCOc1ccc(NC(=O)C2C(=O)CN(c3cccc4ccccc34)C2=O)cc1 (centres undefined) [8-{4-[(4-Hydroxy-1-naphthalen-1-yl-2-oxo-2,5-dihydro-1H-pyrrole-3-carbonyl)-amino]-phenoxy}-octanoic acid] | > 50
9 | CC1C(=O)C(C(=O)Nc2ccc(OCCCCCCCC(=O)O)cc2)C(=O)N1c1ccccc1 (centres undefined) [8-{4-[(4-Hydroxy-5-methyl-2-oxo-1-phenyl-2,5-dihydro-1H-pyrrole-3-carbonyl)-amino]-phenoxy}-octanoic acid] | > 50
